The target in one experiment is T1, human ROCKα/ROCKII mix (Homo sapiens, UniProt O75116).
T1 construct: purchased Upstate Biotechnology 14-451
Kind of experiment: Biochemical assay for ROCK (fluorescence polarization, ROCK IMAP Kit). Background: Polarisation of emitted light reports the rotation of a fluorescent probe.

For the next experiment, the target named is T2, PKC epsilon (Homo sapiens, UniProt Q02156).
T2 construct: purchased Invitrogen P2282
T2 sequence (Q02156 1-737): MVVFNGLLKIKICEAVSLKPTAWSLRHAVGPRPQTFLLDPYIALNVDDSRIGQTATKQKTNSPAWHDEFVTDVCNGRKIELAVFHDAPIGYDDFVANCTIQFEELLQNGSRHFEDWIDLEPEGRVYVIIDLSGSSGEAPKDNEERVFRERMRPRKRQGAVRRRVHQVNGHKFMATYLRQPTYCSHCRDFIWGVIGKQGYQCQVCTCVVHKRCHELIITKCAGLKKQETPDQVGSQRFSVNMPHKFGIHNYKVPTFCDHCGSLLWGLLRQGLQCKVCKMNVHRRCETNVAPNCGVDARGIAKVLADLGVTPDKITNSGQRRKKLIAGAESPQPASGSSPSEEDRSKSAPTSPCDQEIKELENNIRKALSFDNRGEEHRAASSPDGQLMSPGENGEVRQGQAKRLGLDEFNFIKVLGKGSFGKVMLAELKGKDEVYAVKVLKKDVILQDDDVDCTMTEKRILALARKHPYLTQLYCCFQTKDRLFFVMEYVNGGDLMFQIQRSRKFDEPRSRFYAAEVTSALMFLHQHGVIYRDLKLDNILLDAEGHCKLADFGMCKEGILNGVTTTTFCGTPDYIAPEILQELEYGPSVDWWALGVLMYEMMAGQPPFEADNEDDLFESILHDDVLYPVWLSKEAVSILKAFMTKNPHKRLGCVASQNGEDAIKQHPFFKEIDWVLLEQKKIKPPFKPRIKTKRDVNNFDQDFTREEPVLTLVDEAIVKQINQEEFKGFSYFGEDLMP
As to the kind of experiment: Biochemical assay for PKC epsilon (fluorescence polarization, Protein Kinase C Assay Kit, Red). The note with it: read-out: IC50 μM PKCε. Summed up: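 PKC epsilon at 10 ng/ml final was preincubated 30 min at room temperature with compound in HEPES pH 7.4 with DTT and Triton X-100. ATP/protein substrate was then added in buffer with MgCl2 and CaCl2 for 80 min. The reaction was stopped with EDTA, phosphorylation was detected by fluorescence polarization with rhodamine tracer and anti-phosphoserine antibody, and IC50 values came from curve fits.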

The next experiment addresses T3, PKC theta (Homo sapiens, UniProt Q04759).
T3 construct: purchased Invitrogen P2996
As to the kind of experiment: Biochemical assay for PKC theta (fluorescence polarization, Protein Kinase C Assay Kit, Red). The method, then:
The compounds were tested for inhibition of PKC theta.
The inhibition assays were performed with a fluorescence polarization (FP) assay using the commercially available Protein Kinase C Assay Kit, Red, from Invitrogen (Product ID. No. P2941), essentially in accordance with the protocol supplied by the manufacturer. The substrate used was […] (Mw 1561), also obtained from Invitrogen (Product ID No. P2760). The isozyme PKC theta was also obtained from Invitrogen (Product ID No. P2996).
Staurosporine was used as a positive control (2 μM).
To perform the assay, 2 μl, of a solution of the compound to be tested in DMSO (at each concentration) was added to 6 μl of a solution of the enzyme in 10 mM HEPES, 5 mM dithiotreitol, 0.1% Triton X-100, pH 7.4. The final concentration of the enzymes was 60 ng/ml.
After incubating for 30 minutes at room temperature, 4 μl of a mixture of ATP and the protein substrate in 60 mM HEPES (pH7.4), 15 mM MgCl2, 0.3 mM CaCl2, 0.06% NP40 was added. The final concentration of the ATP was 2.5 μM and final concentration of protein substrate was 1 μM.
After incubating for 80 minutes at room temperature, 3 μl of a mix solution of 500 mM EDTA (stop solution) and the Rhodamine-based PKC Red Tracer (from the Protein Kinase C Assay Kit) in BGG/phosphate buffer (pH7.4) with 0.02% NaN3 and 0.1% Triton X-100 was added and 5 μl of a the Anti-Phosphoserine antibody (also from the Protein Kinase C Assay Kit) in BGG/phosphate buffer (pH7.4) with 0.02% NaN3.
The mixture thus obtained (total volume: 20 μl) was incubated for 60 minutes at room temperature, upon which the fluorescence polarization was measured using an automated plate reader (Perkin Elmer, Model Envision 2100-0010 HTS) with FP filters for rhodamine: excitation fitter FITC FP 531 and emission filters FITC FP P-pol 595 and FITC FP S-pol 595 (Perkin-Elmer). The results were fitted to a curve using the XL-Fit algorithm and IC50 values were calculated for each fitted curve, again using the XL-Fit algorithm.

In the next experiment the test system is PKCε. Kind of experiment: Reporter assay (PathDetect trans reporter, Elk/SEAP) in reporter cell-lines over-expressing PKCε. In kind it is cell-based. The source says: Whereas the reporter assay is focused on PKCε specific inhibition in a recombinant system, the monocytes assay is a biomarker assay that can be performed in isolated monocytes, full blood and in vivo to follow the pharmacological reduction of cytokine production:
The reporter assay exploits the effect of over-expressed PKCε on kinase activation and phosphorylation of a transcription factor to evaluate the potency and selectivity of PKCε inhibitors in a cellular context.
It has been shown by jae-Won Soh et al (MCB, February 1999 p 1313-1324) that over-expression of PKC epsilon results in the activation of MAPK-pathway (c-raf/MEK/ERK) leading to the activation of Elk transcription factor. This event can be monitored using the PathDetect trans reporter assay system (Stratagene): pFA2-ELK codes for a fusion protein between the Gal4 DNA binding domain and the transactivation domain of Elk which drives the expression of a secreted alkaline phosphatase (SEAP) reporter gene.
Compounds are incubated with reporter cell-lines either over-expressing PKCε, leading to continued activation of the kinase, or mock transfected cells. Inhibition of the PKCε induced signal in the absence of an effect on the basal level (mock transfected cells) is indicative for selective PKCε inhibition.
On the technique in general: Reporter assays use an easily measured gene product as a stand-in for the process of interest.

The mark [1] stands for this setting: Table 2, compounds of Formula XIII.

Where a name gives a salt, the structure may show the parent alone. Read-outs that look alike come from different tables or passages of the source.

T3 sequence (Q04759 whole entry): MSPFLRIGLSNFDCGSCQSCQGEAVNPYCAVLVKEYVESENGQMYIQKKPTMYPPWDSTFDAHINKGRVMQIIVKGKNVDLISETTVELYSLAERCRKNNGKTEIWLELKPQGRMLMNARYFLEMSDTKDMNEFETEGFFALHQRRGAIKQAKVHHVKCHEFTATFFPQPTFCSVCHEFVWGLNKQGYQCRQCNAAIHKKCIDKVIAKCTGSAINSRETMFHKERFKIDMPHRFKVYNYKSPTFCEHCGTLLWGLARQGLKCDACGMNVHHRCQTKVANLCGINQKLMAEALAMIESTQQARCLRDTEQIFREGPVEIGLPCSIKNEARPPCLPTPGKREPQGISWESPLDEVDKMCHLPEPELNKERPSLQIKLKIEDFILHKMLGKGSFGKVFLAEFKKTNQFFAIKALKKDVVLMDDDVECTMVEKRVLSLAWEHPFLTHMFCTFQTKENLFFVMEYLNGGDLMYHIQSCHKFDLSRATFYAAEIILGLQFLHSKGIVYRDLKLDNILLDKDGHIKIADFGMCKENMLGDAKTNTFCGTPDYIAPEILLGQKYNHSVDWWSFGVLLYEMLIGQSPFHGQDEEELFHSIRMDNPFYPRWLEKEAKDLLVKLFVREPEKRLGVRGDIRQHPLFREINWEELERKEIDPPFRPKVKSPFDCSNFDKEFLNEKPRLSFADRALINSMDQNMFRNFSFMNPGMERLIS
T1 sequence (O75116 11-552 limits assumed): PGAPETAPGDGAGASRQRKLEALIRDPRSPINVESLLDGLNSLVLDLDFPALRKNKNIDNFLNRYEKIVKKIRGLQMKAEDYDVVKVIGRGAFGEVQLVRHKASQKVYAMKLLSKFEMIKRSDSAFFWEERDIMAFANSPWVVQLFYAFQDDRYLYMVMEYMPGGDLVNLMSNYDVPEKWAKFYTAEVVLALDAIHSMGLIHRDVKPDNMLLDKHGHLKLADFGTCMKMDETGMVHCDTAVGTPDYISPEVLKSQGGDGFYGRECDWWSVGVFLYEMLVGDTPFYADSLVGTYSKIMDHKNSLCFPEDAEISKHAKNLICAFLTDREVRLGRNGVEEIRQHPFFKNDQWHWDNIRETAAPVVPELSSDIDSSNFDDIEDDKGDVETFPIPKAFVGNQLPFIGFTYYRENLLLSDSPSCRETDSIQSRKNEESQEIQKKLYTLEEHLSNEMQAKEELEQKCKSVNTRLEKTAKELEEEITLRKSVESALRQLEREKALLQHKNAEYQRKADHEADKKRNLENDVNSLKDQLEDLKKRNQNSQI

In the case of `NC(CNC(=O)C1(c2ccc(Cl)cc2)CC1)c1ccc(C(=O)Nc2ccncc2)cc1` (stereo not shown) [Compound 168, 4-(1-Amino-2-{[1-(4-chloro-phenyl)-cyclopropanecarbonyl]-amino}-ethyl)-N-pyridin-4-yl-benzamide dihydrochloride], the IC50 was 0.05 to 0.5 µM at human ROCKα/ROCKII mix (setting [1]), under 0.05 µM on PKC epsilon (setting [1]) and 50 to 500 nM against PKC theta.
Regarding `NC(CNC(=O)C1(c2ccc(Cl)cc2)CC1)c1ccc(C(=O)Nc2ccnc3[nH]ccc23)cc1` (stereo not shown) [Compound 371, 4-(1-Amino-2-{[1-(4-chloro-phenyl)-cyclopropanecarbonyl]-amino}-ethyl)-N-(1H-pyrrolo[2,3-b]pyridin-4-yl)-benzamide dihydrochloric acid salt], the figures for the IC50 at PKC theta and in the experiment on PKCε were under 50 nM and under 5000 nM, respectively.
In the case of `CC(C)(C(=O)NCC(N)c1ccc(C(=O)Nc2ccncc2)cc1)c1ccc(Cl)cc1` (stereo not shown) [Compound 335, 4-{1-Amino-2-[2-(4-chloro-phenyl)-2-methyl-propionylamino]-ethyl}-N-pyridin-4-yl-benzamide], the IC50 on PKC epsilon (setting [1]) was under 0.05 µM; on PKC theta, 50 to 500 nM; with PKCε, under 5000 nM.
As to `CC(C)(C(=O)NC[C@@H](N)c1ccc(C(=O)Nc2ccncc2)cc1)c1ccc(Cl)cc1` [Compound 399, 4-{(S)-1-Amino-2-[2-(4-chloro-phenyl)-2-methyl-propionylamino]-ethyl}-N-pyridin-4-yl-benzamide dihydrochloric acid salt], the IC50 on human ROCKα/ROCKII mix is 0.05 to 0.5 µM; at PKC epsilon it was under 0.05 µM; against PKC theta, under 50 nM; in the experiment with PKCε, under 5000 nM.
`CC(C)(C(=O)NCC(N)c1ccc(C(=O)Nc2ccncc2)cc1)c1ccc(F)cc1` (stereo not shown) [Compound 339, 4-{1-Amino-2-[2-(4-fluoro-phenyl)-2-methyl-propionylamino]-ethyl}-N-pyridin-4-yl-benzamide]: the IC50 was 0.05 to 0.5 µM at human ROCKα/ROCKII mix (setting [1]), under 0.05 µM at PKC epsilon (setting [1]), under 50 nM on PKC theta and under 5000 nM with PKCε.

A word on the IC50: it is the midpoint of a concentration-inhibition curve.

Values taken from patent US20100168102A9, “Amide Derivatives as Kinase Inhibitors” (Devgen NV, priority 2005, published 2010).
